Experimental data from the NIST ThermoML archive (doi:10.1016/j.fluid.2006.07.011).
± gives the expanded uncertainty stated by the source.

Columns and labels:
[1] = refractive index (Na D-line) (dimensionless); settings: 293.15 K; 101.33 kPa; Liquid; Standard Abbe refractometry
[2] = Boiling temperature at pressure P; settings: 101.33 kPa; Liquid; Distillation
[3] = 101.33 kPa, Liquid

Row | refractive index [1] | Boiling temperature at pressure P [2] | mass density ([3]; 298.15 K) | mass density ([3]; 293.15 K) | Compound
1 | 1.3721 ± 0.0007 | 117.70 ± 0.5 °C | 1044.3 ± 0.26 kg/m3 |  | CC(=O)O [acetic acid]
2 | 1.3711 ± 0.0008 | 109.90 ± 2 °C |  | 1218.5 ± 2.5 kg/m3 | O=CO [formic acid]
3 | 1.4913 ± 0.0008 | 152.39 ± 0.5 °C | 863.75 ± 0.85 kg/m3 |  | CC(C)c1ccccc1 [isopropylbenzene]
4 | 1.3811 ± 0.0008 | 141.00 ± 0.5 °C | 988 ± 0.53 kg/m3 |  | CCC(=O)O [propanoic acid]
